According to article PMC11350868, “A Novel Bacitracin-like Peptide from Mangrove-Isolated Bacillus paralicheniformis NNS4-3 against MRSA and Its Genomic Insights” (Antibiotics, 2024):
In brackets after ≈: the same amount, converted by molar mass. Several values for one entry are separate records, joined by “and”; a condition that tells them apart may be missing. Equal values may be shown once. Read-outs that look alike come from different tables or passages of the source.

How the values were obtained:
MRSA strain 2468 [1] = experiment: Time-kill kinetics; assay type: cell-based, Staphylococcus aureus; conditions: 4× MIC; CAMHB, 37 °C
Procedure: S. aureus TISTR 517 and MRSA strain 2468 were adjusted to a cell density of 5 × 10^5 CFU/mL with CAMHB for the initial treatment. […] The reactions were conducted at 37 °C, followed by spreading the total volume onto MH agar at specific time intervals (0–24 h). Subsequently, the spread plates were incubated at 37 °C for 24 h before counting the colonies. The bacterial reduction trends were presented with a log10 scale of viable cells (logCFU/mL) versus treatment duration. The bacterial cell reduction was determined within 24 h. Each experiment was conducted in triplicate on the 96-well plates. The presence of significant differences (p-value < 0.05) was assessed by two-way ANOVA, followed by the post hoc Tukey’s test for conducting multiple comparisons between treated and non-treated samples at each time interval.

α-chymotrypsin = α-chymotrypsin (Bos taurus, UniProt P00766); conditions: α-chymotrypsin 1 mg/mL, AMP 10 µg/mL, agar well diffusion vs MRSA strain 2468, relative to non-treated sample, mean ± SD, triplicate
Procedure: (§2) The AMP was dissolved in sterile purified water and adjusted to a final concentration of 10 µg/mL. The sensitivity of the AMP to temperatures of 60, 80, and 100 °C as well as autoclaving at 121 °C for 15 and 30 min was evaluated. The sensitivity of the AMP to proteolytic enzymes with different digesting characteristics was studied by incubating with a concentration of 1 mg/mL of proteinase K, trypsin, and α-chymotrypsin (Sigma-Aldrich, Warren, MI, USA). Surfactant compatibility of the AMP was examined by exposing the sample to 1% SDS and 1% Triton X-100 (AppliChem GmbH, Darmstadt, Germany). The propensity of the AMP for acid and base hydrolysis was examined by adjusting the pH of the solution to 1.2, 4.5, 6.8, and 7.4. After incubation, the pH of the AMP solution was neutralized to 7.4 before being assessed for antimicrobial activity. Following all treatments, the antibacterial assay using agar well diffusion against the MRSA strain 2468 was conducted in triplicate. The stability profiles are presented as the percentage of the activity relative to the untreated conditions (mean ± SD) and statistical significance was determined by the Student’s t-test at a p-value < 0.05.

[2] = Surfactant stability (residual antibacterial activity); assay type: physicochemical; conditions: AMP 10 µg/mL, agar well diffusion vs MRSA strain 2468, relative to non-treated sample, mean ± SD, triplicate
Procedure: as §2

[3] = Thermal stability (residual antibacterial activity); assay type: physicochemical; conditions: AMP 10 µg/mL in purified water, agar well diffusion vs MRSA strain 2468, relative to non-treated sample, mean ± SD, triplicate
Procedure: as §2

[4] = Effect of pH on the stability (residual antibacterial activity); assay type: physicochemical; conditions: AMP 10 µg/mL, mean ± SD, triplicate
Procedure: as §2

MRSA strain 142 = experiment: microbe, parasite or virus in culture; assay type: cell-based, Staphylococcus aureus; conditions: strain 142, 24 h
Procedure: (§1) The MIC and MBC of the purified peptide of NNS4-3 were determined against various strains of S. aureus. The broth microdilution method followed the guidance provided by the Clinical and Laboratory Standards Institute (CLSI). Pathogenic bacteria, such as S. aureus TISTR 517 and MRSA strains 142, 1096, and 2468, were used as test strains and cultured on MH agar at 37 °C for 18 h. A single colony of each tested bacterium was suspended in 0.85% NaCl until its turbidity reached an OD of 0.1 at 625 nm (1 × 10^8 CFU/mL). The bacterial cells were diluted to 5 × 10^6 CFU/mL using cation-adjusted Mueller Hinton broth (CAMHB). The diluted cell suspension (10 µL) was transferred to each well of a 96-well plate. With a total volume of 100 µL in each well, the purified AMP was added to each well to obtain final concentrations between 0.125 and 64 µg/mL. Standard antibiotics (vancomycin and cefoxitin) and antibiotic-free samples were used as positive and negative controls, respectively. The 96-well plate was incubated at 37 °C for 24 h. The experiment was carried out in triplicate for each strain. […] Subsequently, 100 µL of each dilution was spread on MH agar and then incubated at 37 °C for 24 h. The MBC was identified as the lowest concentration at which no bacterial colony growth was observed on the plate.

S. aureus TISTR 517 [5] = experiment: microbe, parasite or virus in culture; assay type: cell-based, Staphylococcus aureus; conditions: TISTR 517, 24 h
Procedure: as §1

MRSA strain 1096 = experiment: microbe, parasite or virus in culture; assay type: cell-based, Staphylococcus aureus; conditions: strain 1096, 24 h
Procedure: as §1

MRSA strain 2468 [6] = experiment: microbe, parasite or virus in culture; assay type: cell-based, Staphylococcus aureus; conditions: strain 2468, 24 h
Procedure: as §1

Proteinase K = biological target: T1, Proteinase K (Parengyodontium album, UniProt P06873); experiment: Proteolytic enzyme stability (residual antibacterial activity); assay type: in vitro ADME; conditions: Proteinase K 1 mg/mL, AMP 10 µg/mL, agar well diffusion vs MRSA strain 2468, relative to non-treated sample, mean ± SD, triplicate
T1 construct: purchased Sigma-Aldrich
Procedure: as §2

Trypsin = Trypsin 1 mg/mL, AMP 10 µg/mL, agar well diffusion vs MRSA strain 2468, relative to non-treated sample, mean ± SD, triplicate
Procedure: as §2

S. aureus TISTR 517 [7] = experiment: SEM of treated cells (morphological changes); assay type: cell-based, Staphylococcus aureus; conditions: 1× MIC, 18 h incubation, 20,000× magnification
Procedure: The treatment effect of NNS4-3 AMP on tested bacterial cells was investigated by observing morphological changes under SEM. S. aureus TISTR 517 and MRSA strain 2468 were precultured in MH broth for 18 h before being centrifuged to harvest the cell pellet. Cell pellets of both strains were washed with 0.85% sterile NaCl solution 3 times to remove exopolysaccharide. The washed cells were then dispersed in CAMHB to adjust cell turbidity to 0.1 OD at 625 nm. The prepared cells were diluted to 5 × 10^5 CFU/mL with CAMHB before being treated with NNS4-3 AMP. […] The sample for SEM micrography was prepared by fixing the bacterial sample in 2.5% glutaraldehyde in 0.1 M phosphate buffer pH 7.2 for 24 h before ethanol dehydration of the sample. The complete ethanol removal from the prepared sample was conducted by a critical point drying machine (Quorum Technologies Ltd., Lewes, East Sussex, UK).

T1 sequence (P06873 106-384): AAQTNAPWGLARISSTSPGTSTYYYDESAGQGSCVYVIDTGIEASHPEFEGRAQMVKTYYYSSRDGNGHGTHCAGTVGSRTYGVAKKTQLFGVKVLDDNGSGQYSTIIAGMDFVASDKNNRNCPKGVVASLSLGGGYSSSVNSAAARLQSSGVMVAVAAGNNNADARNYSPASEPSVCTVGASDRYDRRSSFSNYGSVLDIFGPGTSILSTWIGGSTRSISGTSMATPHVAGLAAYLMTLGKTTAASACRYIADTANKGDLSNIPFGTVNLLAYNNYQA

CC(C)CC(NC(=O)C(N)CCCCN)C(=O)NC(CC(C)C)C(=O)NC(CCCCN)C(=O)NC(CC(=O)O)C(=O)NC(CC(C)C)C(=O)NC(Cc1ccccc1)C(=O)NC(Cc1c[nH]cn1)C(=O)NC(CC(=O)O)C(=O)NC(CC(N)=O)C(=O)O (single isomer, unassigned) [NNS4-3 AMP]
time of treatment to complete elimination of viable cells (MRSA strain 2468 [1]): ≤ 8 h
% Residual Activity (α-chymotrypsin; 1 h): 96.65 ± 2.14%
% Residual Activity (α-chymotrypsin; 6 h): 95.15 ± 6.64%
% Residual Activity (α-chymotrypsin; 12 h): 97.06 ± 0.54%
% Residual Activity ([2]; 1% SDS, 1 h): 87.00 ± 6.17 %
% Residual Activity ([2]; 1% SDS, 6 h): 86.69 ± 5.39 %
% Residual Activity ([2]; 1% SDS, 12 h): 86.25 ± 4.76 %
% Residual Activity ([2]; 1% Triton X-100, 1 h): 104.54 ± 4.96%
% Residual Activity ([2]; 1% Triton X-100, 12 h): 103.40 ± 3.82%
% Residual Activity ([3]; 37 °C, 1 h): 103.19 ± 3.68%
% Residual Activity ([3]; 37 °C, 6 h): 100.00 ± 0.00%
% Residual Activity ([3]; 37 °C, 12 h): 99.61 ± 6.44%
% Residual Activity ([3]; 60 °C, 1 h): 101.82 ± 2.46%
% Residual Activity ([3]; 60 °C, 6 h): 95.27 ± 4.31%
% Residual Activity ([3]; 60 °C, 12 h): 90.47 ± 2.98 %
% Residual Activity ([3]; 80 °C, 1 h): 97.52 ± 6.21%
% Residual Activity ([3]; 80 °C, 6 h): 41.13 ± 35.62 %
% Residual Activity ([3]; 100 °C, 1 h): 73.05 ± 1.57 %
% Residual Activity ([3]; 100 °C, 6 h): 0.00 ± 0.00 %
% Residual Activity ([3]; 100 °C, 12 h): 0.00 ± 0.00 %
% Residual Activity ([3]; autoclaving 121 °C, 15 psi, 15 min): 61% and 61.83 ± 0.74 %
% Residual Activity ([3]; autoclaving 121 °C, 15 psi, 30 min): 0.00 ± 0.00 %
% Residual Activity ([4]; pH 1.2, 1 h, neutralized to pH 7.4 before agar well diffusion vs MRSA strain 2468, relative to non-treated sample): 98.12 ± 2.14%
% Residual Activity ([4]; pH 1.2, 6 h, neutralized to pH 7.4 before agar well diffusion vs MRSA strain 2468, relative to non-treated sample): 95.45 ± 0.79%
% Residual Activity ([4]; pH 1.2, 12 h, neutralized to pH 7.4 before agar well diffusion vs MRSA strain 2468, relative to non-treated sample): 94.14 ± 3.12%
% Residual Activity ([4]; pH 4.5, 1 h, neutralized to pH 7.4 before agar well diffusion vs MRSA strain 2468, relative to non-treated sample): 95.24 ± 3.29%
% Residual Activity ([4]; pH 4.5, 6 h, neutralized to pH 7.4 before agar well diffusion vs MRSA strain 2468, relative to non-treated sample): 99.64 ± 2.87%
% Residual Activity ([4]; pH 4.5, 12 h, neutralized to pH 7.4 before agar well diffusion vs MRSA strain 2468, relative to non-treated sample): 96.91 ± 2.99%
% Residual Activity ([4]; pH 6.8, 1 h, neutralized to pH 7.4 before agar well diffusion vs MRSA strain 2468, relative to non-treated sample): 98.87 ± 2.00%
% Residual Activity ([4]; pH 6.8, 6 h, neutralized to pH 7.4 before agar well diffusion vs MRSA strain 2468, relative to non-treated sample): 95.89 ± 5.00%
% Residual Activity ([4]; pH 6.8, 12 h, neutralized to pH 7.4 before agar well diffusion vs MRSA strain 2468, relative to non-treated sample): 92.54 ± 4.14%
% Residual Activity ([4]; pH 7.4, 1 h, agar well diffusion vs MRSA strain 2468, relative to non-treated sample): 97.80 ± 1.32%
% Residual Activity ([4]; pH 7.4, 6 h, agar well diffusion vs MRSA strain 2468, relative to non-treated sample): 94.82 ± 2.80%
% Residual Activity ([4]; pH 7.4, 12 h, agar well diffusion vs MRSA strain 2468, relative to non-treated sample): 93.29 ± 1.89%
MBC (MRSA strain 142): 4 µg/mL (≈ 3.22 µM)
MIC (MRSA strain 142): 1 µg/mL (≈ 0.805 µM)
MBC (S. aureus TISTR 517 [5]): 64 µg/mL (≈ 51.5 µM)
MIC (S. aureus TISTR 517 [5]): 16 µg/mL (≈ 12.9 µM)
MBC (MRSA strain 1096): 4 µg/mL (≈ 3.22 µM)
MIC (MRSA strain 1096): 1 µg/mL (≈ 0.805 µM)
MBC (MRSA strain 2468 [6]): 4 µg/mL (≈ 3.22 µM)
MIC (MRSA strain 2468 [6]): 1 µg/mL (≈ 0.805 µM)
% Residual Activity (Proteinase K; 1 h): 98.66 ± 1.68%
% Residual Activity (Proteinase K; 6 h): 99.19 ± 1.07%
% Residual Activity (Proteinase K; 12 h): 99.07 ± 3.08%
% Residual Activity (Trypsin; 1 h): 95.57 ± 4.01%
% Residual Activity (Trypsin; 6 h): 95.66 ± 2.62%
% Residual Activity (Trypsin; 12 h): 93.81 ± 3.31%
morphological changes under SEM (S. aureus TISTR 517 [7]): cellular lysis
